Source: PubChem BioAssay (NCI)
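Protocol summary: plate cells (96-well), add compound at 5 concentrations, incubate 48 h, interpolate endpoints linearly. GI50: concentration for 50% inhibition of growth. TGI is the concentration that stops growth completely.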

Key:
Test in all cases: NCI tumour cell line growth inhibition, 48 h
COLO 205 colon = system: COLO 205 colon
HL-60(TB) leukemia = system: HL-60(TB) leukemia
SF-539 CNS = system: SF-539 CNS
OVCAR-5 ovarian = system: OVCAR-5 ovarian
HCT-116 colon = system: HCT-116 colon
U251 CNS = system: U251 CNS
SK-MEL-28 melanoma = system: SK-MEL-28 melanoma
HOP-92 NSCLC = system: HOP-92 NSCLC
BT-549 breast = system: BT-549 breast
SR leukemia = system: SR leukemia

Structure (SMILES)	TGI (COLO 205 colon)	TGI (HL-60(TB) leukemia)	TGI (SF-539 CNS)	TGI (OVCAR-5 ovarian)	TGI (HCT-116 colon)	TGI (U251 CNS)	TGI (SK-MEL-28 melanoma)	TGI (HOP-92 NSCLC)	GI50 (COLO 205 colon)	GI50 (HL-60(TB) leukemia)	GI50 (SF-539 CNS)	GI50 (OVCAR-5 ovarian)	GI50 (HCT-116 colon)	GI50 (U251 CNS)	GI50 (SK-MEL-28 melanoma)	GI50 (BT-549 breast)	TGI (BT-549 breast)	GI50 (HOP-92 NSCLC)	TGI (SR leukemia)
Cc1cc(=O)n(-c2c(C)cccc2Cl)c(/C=C(\O)c2ccncc2)n1	> 100 µM	> 100 µM	> 100 µM	> 100 µM	> 100 µM	> 100 µM	> 100 µM	> 100 µM											
COc1ccccc1/C=C/C1=C(C)CCC(c2ccccc2OC)C1C (stereo unspecified)	0.498 µM	0.603 µM	0.215 µM	> 68.2 µM	3.14 µM	22.5 µM	> 100 µM	> 100 µM	0.21 µM	262 nM	0.0833 µM	0.403 µM	0.108 µM	0.132 µM	0.24 µM	0.27 µM	1.73 µM	0.632 µM	
N#Cc1ccccc1C#C/C=C\C#CC#C/C=C\C#Cc1ccccc1C#N	21.1 µM	22.5 µM	> 100 µM	26.5 µM	30.2 µM	47.1 µM	49.6 µM	> 100 µM	7.33 µM	4120 nM	22.6 µM	11.4 µM	13.6 µM	12.4 µM	10.6 µM	20.9 µM	> 100 µM	10.4 µM	
COc1cc(/C=C/c2ccc(Br)cc2)cc(OC)c1OC	25.7 µM	19 µM	31.9 µM	> 75.1 µM	17.1 µM	30.7 µM	48 µM	72.3 µM											> 100 µM
COc1ccc2c(c1)[n+](=O)c(C(=O)C/C(=N/NC(=O)C[N+](C)(C)C)C(=O)Nc1cccc(C)c1C)c(C)n2O	> 100 µM		> 100 µM	> 100 µM	> 100 µM	> 100 µM	> 100 µM	> 100 µM											
CC1=C(C(=O)NCc2ccccc2)C(c2ccccc2C)C(C(=O)NCc2ccccc2)=C(C)N1	> 100 µM	59.3 µM	48.8 µM	> 95.5 µM	37.6 µM	68.3 µM	> 67.3 µM	> 86.8 µM											81.1 µM
CC(=O)OCC1OC(OCc2ccccc2)C(Br)C(OC(C)=O)C1OC(C)=O (stereo unspecified)	> 100 µM	> 100 µM	> 100 µM	> 100 µM	> 100 µM	> 100 µM	> 100 µM	> 100 µM											> 100 µM
CC(C)N(C(=O)C12C3C4C1C1C2C3C41I)C(C)C (stereo unspecified)	> 100 µM	> 100 µM		> 100 µM	> 100 µM		> 100 µM	> 100 µM											> 100 µM
O=C(O)c1c(Cl)c(Cl)c(Cl)c(Cl)c1C(=O)Nc1ccc2cn[nH]c2c1	> 100 µM		> 100 µM	> 100 µM	> 100 µM	> 100 µM	> 100 µM	> 100 µM									> 100 µM		
COC1OC(CBr)C(OC(=O)c2ccccc2)C(OS(=O)(=O)c2ccc(C)cc2)C1Br (stereo unspecified)	> 100 µM	> 100 µM	> 100 µM		> 100 µM	> 100 µM	> 100 µM	> 100 µM											> 100 µM
